Results: US20240156920A1, “COMPOSITIONS COMPRISING HYALURONIDASE AND/OR COLLAGENASE AND/OR 4-METHYLUMBELLIFERONE (4-MU) AND METHODS OF TREATMENT USING SAME” (STANDARD OF CARE CORPORATION, priority 2019, published 2024)

Columns and labels:
[1] = system: patient with peri-orbital puffiness due to edema; assay: Treatment of peri-orbital puffiness due to peri-orbital edema using 4-MU (Example 5); assay type: in vivo, human
Description: A patient with peri-orbital puffiness due to edema (edema not due to a hyaluronic acid filler) of the peri-orbital soft tissues or edema of the eyelid fat pads was treated with a composition comprising 25 mg/mL 4-methylumbelliferone (4-MU). Briefly, four injections were administered in the peri-orbital soft tissues and edematous orbital fat pads. The injections were performed using a 0.5 ml syringe having a 32-gauge needle inserted parallel to the globe, angling away from the globe, to avoid injury to the globe. An improvement in the extent of peri-orbital puffiness due to peri-orbital edema was observed within the first 15-60 minutes after the injections. […] Although there was recurrence of some of the edema, there was an improvement up to 3 months.

[2] = system: patient with peri-orbital puffiness due to edema; assay: Treatment of peri-orbital puffiness due to peri-orbital edema using a hyaluronidase (Example 2); assay type: in vivo, human; conditions: four injections, 10 units in each fat pad
Description: A patient with peri-orbital puffiness due to edema (edema not due to a hyaluronic acid filler) of the peri-orbital soft tissues or edema of the eyelid fat pads was treated with a composition comprising a hyaluronidase (e.g., Hylenex). Briefly, four injections were administered in the peri-orbital soft tissues and edematous orbital fat pads using a dosage of 10 units injected in each fat pad (in the case of edema of the fat pads). The injections were performed using a 0.5 ml syringe having a 32-gauge needle inserted parallel to the globe, angling away from the globe, to avoid injury to the globe.
An improvement in the extent of peri-orbital puffiness due to peri-orbital edema was observed within the first 15-60 minutes after the injections. […] Although there was recurrence of some of the edema, there was an improvement up to 3 months.

Demyelinated neurons = assay: Treatment of demyelinated neurons in culture, microscopy (Example 9); assay type: cell-based; conditions: 10 U/mL; after 14 days; 24-well plate
Description: Demyelinated neurons were grown to confluence in culture and then transferred to a 24-well cell culture plate (Sigma) in a volume of 2 mL. 10 U/mL of Hylenex was added to each well.

[3] = system: patients with lower eyelid puffiness; assay: Treatment of lower eyelid puffiness with hyaluronidase and collagenase, visual assessment (Example 7); assay type: in vivo, human; conditions: one patient per composition; 100 U to each of five sites in the lower eyelid fat pads; assessed 2 weeks to 1 year after administration
Description: Patient A (a person), Patent B (a person), and Patent C (a person) presented with lower eyelid puffiness.
Briefly, Patient A was administered a composition comprising Hylenex by injections of 100 U to each of five sites in the lower eyelid fat pads, Patient B was administered a composition comprising a collagenase by injections of 100 U to each of five sites in the lower eyelid fat pads, and Patient C was administered a composition comprising Hylenex and a collagenase by injections of 100 U to each of five sites in the lower eyelid fat pads. The injections were performed using a 0.5 ml syringe having a 32-gauge needle.
Each patient's lower eyelid puffiness was visually assessed 2 weeks, 1 month, 2 months, 4 months, 6 months, and 1 year after administration of the compositions.

[4] = system: patients with peri-orbital puffiness due to edema of the eyelid fat pads; assay: Treatment of peri-orbital puffiness due to peri-orbital edema using HYLENEX, PEFAS and Subjective Patient Score (Example 12); assay type: in vivo, human
Text: The Peri-orbital and Eyelid Fullness Assessment Scale (PEFAS or Sweis-Scale) defines the etiology of the upper and/or lower eyelid fullness to determine the best and safest course of treatment. It determines whether the fullness is secondary to pseudoherniation of the upper and/or lower eyelid fat pads, secondary to edema of the eyelid soft tissues, secondary to edema of the fat pads, or secondary to a combination of pseudoherniation of the fat pads with edema of the fat pads, and/or edema of the peri-orbital soft tissues. The PEFAS score is represented as the findings in the right upper eyelid/the findings in the lower eyelid and the findings in the left upper eyelid/the findings in the lower eyelid.
Four patients (Patients A-D) with peri-orbital puffiness due to edema (as identified in Example 1) of the eyelid fat pads were scored as a Grade 1E, 2E, 3E, or 3+E on the Peri-orbital Fullness Assessment Scale. A score was given to the upper and lower eyelids in the patient's left and right eye. Patient A's eyes were scored on the PEFAS scale as a L 0/3E (left eye; upper eyelid over lower eyelid) and a R 0/3E (right eye; upper eyelid over lower eyelid). Patient B was scored as a L 2E/2E and a R 2E/2E. Patient C was scored as a L 1/3E and a R 0/3E and Patient D was scored as a L 2E/3+E and a R 2E/3+E.
The patients were subsequently treated with HYLENEX. […] The injections were performed using a 0.5 ml syringe having a 31-gauge needle inserted parallel to the globe, angling away from the globe, to avoid injury to the globe. Specifically, three injections were made into the medial eyelid fat pad, two into the central eyelid fat pad, and three into the lateral eyelid fat pad at a depth of about 6 mm, 8 mm, and 6 mm, respectively. Additionally Patients B and C received 3 to 5 injections in the peri-orbital soft tissues (e.g., the malar region) at a depth of between about 5 to about 10 mm.
After treatment, Patient C was followed for 1 month, Patient D was followed for 2 months, and Patients A and B were followed for 3 months.
After treatment, the patient's eyes were scored on the PEFAS scale. Patient A's eyes were scored on the PEFAS scale as a L 0/0 (left eye; upper eyelid over lower eyelid) and a R 0/0E (right eye; upper eyelid over lower eyelid). Patient B was scored as a L 2E/1E and a R 2E/1. Patient C was scored as a L 1E/1E and a R 0/1 and Patient D was scored as a L 2E/0E and a R 2E/0.
Each patient was given an initial Subjective Patient Score of 10. The Subjective Patient Score is based on a scale of 1 to 10 with 10 being the subject's observed starting amount of peri-orbital puffiness and 0 being no puffiness. Each of the patients scored their puffiness between as a 3 or 4 at 2 weeks, 3 months, and 6 months after their initial treatment.

patients with jowls = assay: Treatment of jowls, severity grade (Example 10); assay type: in vivo, human; conditions: Patients A, B and C, injected at seven points
Description: Patients with jowls (Patient A, B, and C) were treated with Hylenex and the change in severity of their jowls was measured after treatment. Briefly, the severity of jowls in Patients A-C was assessed on a scale of severe, moderate or mild. Patient A and B presented with severe jowls while Patient C presented with mild jowls.
Next, Hylenex was injected at seven different points into an area of skin on each patients with jowls. The injections were performed using a 0.5 ml syringe having a 32-gauge needle. All patients were followed post injection, at one day, one week, one, three, and six months.

[5] = system: patients with inflammation due to stasis dermatitis; assay: Treatment of inflammation due to stasis dermatitis, severity grade (Example 6); assay type: in vivo, human; parameters: key: 4 (severe); 3 (moderate); 2 (mild); 1 (quiescent); 0 (normal); conditions: one week after treatment, 500 units at five points on the ankle
Description: Patients with inflammation due to stasis dermatitis (Patient A, B, and C) on their lower legs were treated with Hylenex and the change in severity of their inflammation was measured after treatment.
Briefly, the severity of inflammation on a target area of each patient's ankle was first graded on the following scale: 4 (severe), 3 (moderate), 2 (mild), 1 (quiescent), or 0 (normal). Patient A scored a 4 prior to treatment, Patient B scored a 3 prior to treatment, and Patient C scored a 3 prior to treatment.
Next, 500 units of hylenex was injected at five different points into an area on each patient's ankle. The injections were performed using a 0.5 ml syringe having a 32-gauge needle. All patients were followed post injection, at one day and one week. Patient A's inflammation was classified as a 2 one week after treatment, Patient B's inflammation was classified as a 2 one week after treatment, and Patient C's inflammation was classified as a 2 one week after treatment.

[6] = system: patients with scleroderma on their arms; assay: Treatment of fibrosis (scleroderma on arms), severity grade (Example 8); assay type: in vivo, human; conditions: five patients; average prior to treatment moderate; five injection points in a 10×10 cm area; followed one day to six months
Description: Five patients with scleroderma on their arms were treated with Hylenex and the change in severity of their fibrosis was measured after treatment. Briefly, the severity of scleroderma on a target area of on each patient was first graded using as either severe, moderate, mild, or none. Overall scores for patients' arms prior to treatment averaged as moderate.
Next, Hylenex was injected at five different points into a 10×10 cm area of scleroderma on the patient's arm. The injections were performed using a 0.5 ml syringe having a 32-gauge needle. All patients were followed post injection, at one day, one week, one, three, and six months.

Row | Molecule | adverse effects ([1]; one patient followed for 6 months, 25 mg/mL, four injections) | duration of overall reduction in peri-orbital puffiness due to peri-orbital edema compared to pre-treatment ([1]; one patient followed for 6 months, 25 mg/mL, four injections, recurrence of some of the edema) | time after the injections within which an improvement in the extent of peri-orbital puffiness due to peri-orbital edema was observed ([1]; one patient, four injections of a composition comprising 25 mg/mL) | adverse effects ([2]; one patient followed for 6 months) | duration of overall reduction in peri-orbital puffiness due to peri-orbital edema compared to pre-treatment ([2]; one patient followed for 6 months, recurrence of some of the edema) | time after the injections within which an improvement in the extent of peri-orbital puffiness due to peri-orbital edema was observed ([2]; one patient) | myelination of neurons by microscopy (Demyelinated neurons) | lower eyelid puffiness, visual assessment [3] | PEFAS score after treatment (upper eyelid over lower eyelid) ([4]; Patient A, left eye, L 0/3E before treatment) | PEFAS score after treatment (upper eyelid over lower eyelid) ([4]; Patient C, right eye, R 0/3E before treatment) | adverse effects ([4]; Patients A-D followed for up to 6 months, 30U per fat pad) | time over which a reduction in peri-orbital puffiness is still exhibited ([4]; Patients A-D, 30U per fat pad) | time after the injections within which an improvement in the extent of peri-orbital puffiness was exhibited ([4]; each of Patients A-D, 30U per peri-orbital fat pad exhibiting edema) | peri-orbital (eye) puffiness compared to pre-treatment ([4]; each of Patients A-D, followed 1 month (C), 2 months (D), 3 months (A and B), 30U per fat pad) | duration of effect on jowls (patients with jowls) | severity of jowls (severe, moderate or mild) after treatment (patients with jowls; one day after treatment, A and B severe, C mild before) | severity of inflammation (scale 0-4) after treatment ([5]; Patient A, 4 prior to treatment) | severity of inflammation (scale 0-4) after treatment ([5]; Patient B, 3 prior to treatment) | severity of inflammation (scale 0-4) after treatment ([5]; Patient C, 3 prior to treatment) | overall severity score of scleroderma post-treatment (severe, moderate, mild, none) [6]
1 | Cc1cc(=O)oc2cc(O)ccc12 [4-methylumbelliferone] | without any adverse effects | up to 3 months | 15 to 60 min |  |  |  |  |  |  |  |  |  |  |  |  |  |  |  |  | 
2 | Hylenex: recombinant preparation of human hyaluronidase; soluble fragment of human hyaluronidase (PH20), 447 amino acids, SEQ ID NO: 1 |  |  |  | without any adverse effects | up to 3 months | 15 to 60 min | remyelinated neurons | reduction in lower eyelid puffiness | 0/0 | 0/1 | without any adverse effects | up to 6 months | 15 to 60 min | marked reduction | more than six months | mild jowls | 2 | 2 | 2 | mild
3 | collagenase |  |  |  |  |  |  |  | did not exhibit any reduction in lower eyelid puffiness |  |  |  |  |  |  |  |  |  |  |  | 
